In US9174994B2, “Enhanced treatment regimens using mTor inhibitors” (INTELLIKINE LLC, priority 2011, dated 2015):

Experiment: Phase I clinical trial: treatment-emergent adverse events (patients, n (%)), dose limiting toxicity, MTD
Assay type: in vivo
Procedure: Safety, maximum tolerated dose (MTD), pharmacokinetics (PK) and preliminary antitumor activity were evaluated.
Pharmacodynamic (PD) endpoints were evaluated in surrogate (peripheral blood cells [PBCs], skin) and tumor tissues for the phosphorylation of TORC1-dependent markers (4EBP1/S6), and TORC2-dependent markers (AKT/PRAS40).

CC(C)n1nc(-c2ccc3oc(N)nc3c2)c2c(N)ncnc21 [compound A]
Anaemia (2 mg/day (N = 3)): 0 (0%) | Asthenia (2 mg/day (N = 3)): 0 (0%) | Blood creatinine increased (2 mg/day (N = 3)): 0 (0%) | Coagulopathy (2 mg/day (N = 3)): 0 (0%) | Confusional state (2 mg/day (N = 3)): 0 (0%) | Cough (2 mg/day (N = 3)): 0 (0%) | Decreased appetite (2 mg/day (N = 3)): 1 (33%) | Dehydration (2 mg/day (N = 3)): 0 (0%) | Diarrhoea (2 mg/day (N = 3)): 0 (0%) | Dizziness (2 mg/day (N = 3)): 0 (0%) | Dry mouth (2 mg/day (N = 3)): 1 (33%) | Dry skin (2 mg/day (N = 3)): 0 (0%) | Dysgeusia (2 mg/day (N = 3)): 2 (67%) | Dyspepsia (2 mg/day (N = 3)): 1 (33%) | Dyspnoea (2 mg/day (N = 3)): 0 (0%) | Dyspnoea exertional (2 mg/day (N = 3)): 0 (0%) | Eye infection (2 mg/day (N = 3)): 0 (0%) | Fatigue (2 mg/day (N = 3)): 1 (33%) | Gastritis (2 mg/day (N = 3)): 0 (0%) | Gravitational oedema (2 mg/day (N = 3)): 0 (0%) | Hypercholesterolaemia (2 mg/day (N = 3)): 0 (0%) | Hyperglycaemia (2 mg/day (N = 3)): 2 (67%) | Hypocalcaemia (2 mg/day (N = 3)): 0 (0%) | Insomnia (2 mg/day (N = 3)): 0 (0%) | Lymphopenia (2 mg/day (N = 3)): 0 (0%) | Mucosal inflammation (2 mg/day (N = 3)): 0 (0%) | Muscle spasms (2 mg/day (N = 3)): 0 (0%) | Nausea (2 mg/day (N = 3)): 1 (33%) | Orthostatic hypotension (2 mg/day (N = 3)): 0 (0%) | Panniculitis (2 mg/day (N = 3)): 0 (0%) | Patients Reporting at Least One Related TEAE (2 mg/day (N = 3)): 3 (100%) | Polyuria (2 mg/day (N = 3)): 0 (0%) | Pruritus (2 mg/day (N = 3)): 0 (0%) | Rash (2 mg/day (N = 3)): 1 (33%) | Skin discolouration (2 mg/day (N = 3)): 0 (0%) | Skin exfoliation (2 mg/day (N = 3)): 0 (0%) | Thrombocytopenia (2 mg/day (N = 3)): 0 (0%) | Vomiting (2 mg/day (N = 3)): 0 (0%) | Weight decreased (2 mg/day (N = 3)): 0 (0%) | Anaemia (4 mg/day (N = 7)): 0 (0%) | Asthenia (4 mg/day (N = 7)): 0 (0%) | Blood creatinine increased (4 mg/day (N = 7)): 1 (14%) | Coagulopathy (4 mg/day (N = 7)): 0 (0%) | Confusional state (4 mg/day (N = 7)): 0 (0%) | Cough (4 mg/day (N = 7)): 0 (0%) | Decreased appetite (4 mg/day (N = 7)): 1 (14%) | Dehydration (4 mg/day (N = 7)): 0 (0%) | Diarrhoea (4 mg/day (N = 7)): 0 (0%) | Dizziness (4 mg/day (N = 7)): 0 (0%) | Dry mouth (4 mg/day (N = 7)): 1 (14%) | Dry skin (4 mg/day (N = 7)): 0 (0%) | Dysgeusia (4 mg/day (N = 7)): 3 (43%) | Dyspepsia (4 mg/day (N = 7)): 0 (0%) | Dyspnoea (4 mg/day (N = 7)): 0 (0%) | Dyspnoea exertional (4 mg/day (N = 7)): 1 (14%) | Eye infection (4 mg/day (N = 7)): 0 (0%) | Fatigue (4 mg/day (N = 7)): 2 (29%) | Gastritis (4 mg/day (N = 7)): 0 (0%) | Gravitational oedema (4 mg/day (N = 7)): 0 (0%) | Hypercholesterolaemia (4 mg/day (N = 7)): 1 (14%) | Hyperglycaemia (4 mg/day (N = 7)): 5 (71%) | Hypocalcaemia (4 mg/day (N = 7)): 0 (0%) | Insomnia (4 mg/day (N = 7)): 0 (0%) | Lymphopenia (4 mg/day (N = 7)): 1 (14%) | Mucosal inflammation (4 mg/day (N = 7)): 2 (29%) | Muscle spasms (4 mg/day (N = 7)): 0 (0%) | Nausea (4 mg/day (N = 7)): 2 (29%) | Orthostatic hypotension (4 mg/day (N = 7)): 0 (0%) | Panniculitis (4 mg/day (N = 7)): 0 (0%) | Patients Reporting at Least One Related TEAE (4 mg/day (N = 7)): 7 (100%) | Polyuria (4 mg/day (N = 7)): 1 (14%) | Pruritus (4 mg/day (N = 7)): 2 (29%) | Rash (4 mg/day (N = 7)): 3 (43%) | Skin discolouration (4 mg/day (N = 7)): 0 (0%) | Skin exfoliation (4 mg/day (N = 7)): 0 (0%) | Thrombocytopenia (4 mg/day (N = 7)): 1 (14%) | Vomiting (4 mg/day (N = 7)): 0 (0%) | Weight decreased (4 mg/day (N = 7)): 0 (0%) | Dose limiting toxicity (6 mg QD): Rash | Alanine aminotransferase increased (6 mg/3 W, QDx3d QW (N = 3)): 1 (33%) | Asthenia (6 mg/3 W, QDx3d QW (N = 3)): 0 (0%) | Catheter site inflammation (6 mg/3 W, QDx3d QW (N = 3)): 0 (0%) | Catheter site pain (6 mg/3 W, QDx3d QW (N = 3)): 0 (0%) | Decreased appetite (6 mg/3 W, QDx3d QW (N = 3)): 0 (0%) | Diarrhoea (6 mg/3 W, QDx3d QW (N = 3)): 0 (0%) | Dry skin (6 mg/3 W, QDx3d QW (N = 3)): 0 (0%) | Dysgeusia (6 mg/3 W, QDx3d QW (N = 3)): 0 (0%) | Dyspnoea (6 mg/3 W, QDx3d QW (N = 3)): 0 (0%) | Fatigue (6 mg/3 W, QDx3d QW (N = 3)): 0 (0%) | Headache (6 mg/3 W, QDx3d QW (N = 3)): 0 (0%) | Hyperbilirubinaemia (6 mg/3 W, QDx3d QW (N = 3)): 1 (33%) | Hypercholesterolaemia (6 mg/3 W, QDx3d QW (N = 3)): 0 (0%) | Hyperglycaemia (6 mg/3 W, QDx3d QW (N = 3)): 1 (33%) | Hypertransaminasaemia (6 mg/3 W, QDx3d QW (N = 3)): 0 (0%) | Hypertriglyceridaemia (6 mg/3 W, QDx3d QW (N = 3)): 0 (0%) | Hypomagnesaemia (6 mg/3 W, QDx3d QW (N = 3)): 0 (0%) | Hypotension (6 mg/3 W, QDx3d QW (N = 3)): 0 (0%) | Low fever (6 mg/3 W, QDx3d QW (N = 3)): 0 (0%) | Lymphopenia (6 mg/3 W, QDx3d QW (N = 3)): 0 (0%) | Mucosal inflammation (6 mg/3 W, QDx3d QW (N = 3)): 2 (67%) | Nausea (6 mg/3 W, QDx3d QW (N = 3)): 2 (67%) | Palmar-plantar erythrodysaesthesia syndrome (6 mg/3 W, QDx3d QW (N = 3)): 0 (0%) | Patients Reporting at Least One Related TEAE (6 mg/3 W, QDx3d QW (N = 3)): 3 (100%) | Platelet count decreased (6 mg/3 W, QDx3d QW (N = 3)): 1 (33%) | Pruritus (6 mg/3 W, QDx3d QW (N = 3)): 1 (33%) | Pyrexia (6 mg/3 W, QDx3d QW (N = 3)): 0 (0%) | Rash (6 mg/3 W, QDx3d QW (N = 3)): 1 (33%)
